# Patent publication US20220257583A1, “Compositions and Methods for the Treatment of Intracranial Diseases” (Duke University, priority 2019, published 2022)
# B1: G-CSF: granulocyte colony-stimulating factor, administered intraperitoneally every 3 days (protein, UniProt P09919 31-207, looked up)
# Granulocyte …: TPLGPASSLPQSFLLKCLEQVRKIQGDGAALQEKLVSECATYKLCHPEELVLLGHSLGIPWAPLSSCPSQALQLAGCLSQLHSGLFLYQGLLQALEGISPELGPTLDTLQLDVADFATTIWQQMEELGMAPALQPTQGAMPAFASAFQRRAGGVLVASHLQSFLEVSYRVLRHLAQP
# Experiments:
# S1P1 on T cells = test: S1P1 expression on T cells exposed to compound; type: cell-based
# [1] = target: T1, β-arrestin 2 recruitment to activated β2V2R (Homo sapiens, UniProt P32121); test: DiscoveRx β-arrestin 2 recruitment assay (β2V2R, isoproterenol stimulation); type: cell-based; conditions: 25 minutes pretreatment
# T1 construct: host or cells: U2OS
# Description: FIG. 13: The first 40 initial hits from the screening of a structurally diverse, drug-like compound (DDLC) library containing more than 3,500 unique molecules with binding activity against purified β-arrestin 2 were evaluated for β-arrestin 2 recruitment by DiscoveRx assay. DiscoveRx cells expressing chimeric β2-adrenergic receptor (β2AR) with C-terminal tail from vasopressin receptor 2 (β2V2R) that is known to bind β-arrestin 2 very tightly were employed in this assay. The DiscoveRx cells were pretreated with candidate compounds at 50 μM or DMSO (control) for 25 minutes followed by stimulation with isoproterenol (10 nM). Compound B29 inhibits more than 75% of β-arrestin 2 activity (red-dashed rectangle) induced by isoproterenol which is a receptor agonist (red bar graph).
# FIG. 14: β-arrestin 2 recruitment to activated β2V2R. Testing B29 further, the DiscoveRx cells were pretreated with compound B29 at 1, 10, 50 μM or DMSO (control) for 25 minutes followed by stimulation with isoproterenol at various concentrations.
# FIG. 20 is a graphic representation showing the effect of putative βarr2 binding compounds (21 hits) on βarr2 recruitment to agonist activated GPCR. DiscoveRx-U2OS cells exogenously expressing βarr2 and β2V2R were treated with each putative βarrestin binding compound at 50 μM for 30 min and then stimulated with agonist isoproterenol (10 nM) to induce recruitment of βarr. […]
# intracranial CT2A glioma = test: Survival of mice bearing intracranial CT2A glioma; type: in vivo; conditions: IC CT2A mice, monotherapy
# Description: FIGS. 6A-6E: Hindering S1P1 internalization abrogates T-cell sequestration in bone marrow. FIG. 6A: Relative sequestration of adoptively transferred CFSE-labeled T-cells within the bone marrow of CT2A IC recipient mice at 2 h (left) or 24 h (right) after transfer. As indicated, transferred cells were splenocytes either from control C57BL/6 donors (control) or from S1P1 stabilized knock-in (S1P1 KI) donors (n=5 recipient mice per group). […] FIG. 6B: T-cell counts in the bone marrow of n=10 intracranial CT2A-bearing wild-type C57BL/6 or n=11 S1P1 KI mice. Counts were assessed at 18 d following tumor implantation and are shown relative to baseline counts inn=6 tumor-naïve control wild-type or n=6 tumor-naïve S1P1 KI mice. Cumulative data from three experiments are depicted in FIG. 6B and FIG. 6C, Intracranial CT2A tumors were harvested from n=6 wild-type C57BL/6 (WT) or n=6 S1P1 KI mice at 18 d following tumor implantation. TILs were assessed by flow cytometry and the number of total T-cells per gram of tumor quantified. FIG. 6D: The frequency of activated effector) (CD44^hiCD62L^lo) T-cells in intracranial CT2A tumors from the same n=6 wild-type C57BL/6 (WT) or n=6 S1P1 KI mice in FIG. 6C was also quantified. […] P values in and were determined by two-tailed, unpaired Student's t-test. Survival in FIG. 6E was assessed by two-tailed, generalized Wilcoxon test. […]
# [2] = tested on: T-cells in IC CT2A-bearing mice; test: Bone marrow and blood T-cell counts in IC CT2A-bearing mice; type: in vivo; conditions: intraperitoneally every 3 days (Days 3-18), counts 18 days after implantation
# Text: FIGS. 6F-6J: FIG. 6F: Representative flow cytometry plot depicting the frequency of S1P1 on the surface of T-cells in the bone marrow of C57BL/6 mice and S1P1 KI bearing IC CT2A tumor. FIG. 6G: S1P1 KI mice were implanted with IC CT2A tumors and treated with anti (α)-PD-1, 4-1BB agonist, or the combination of both (n=8 per group). FIG. 6H and FIG. 6I: Bone marrow (FIG. 6H) and blood (FIG. 6I) T-cell counts in n=8 control mice and n=8 IC CT2A-bearing mice administered control treatment or G-CSF intraperitoneally every 3 days following tumor implantation (Days 3-18). Counts were assessed 18 days following tumor implantation. FIG. 6J: IC CT2A IC mice were administered G-CSF, 4-1BB agonist, or the combination regimen of both drugs (n=8 per group). […] Data in FIG. 6H and FIG. 6I are shown as mean±s.e.m. P values and were determined by two-tailed, unpaired Student's t-test. Survivals in FIG. 6G and FIG. 6J were assessed by two-tailed generalized Wilcoxon test. P values for overall comparison are depicted. […]
# Spleen, thymus, cervical lymph nodes, and long bones of the legs (femur and tibia) were collected at defined and/or humane endpoints, in accordance with protocol. […] Briefly, tissues were processed in RPMI, minced into single cell suspensions, cell-strained, counted, stained with antibodies, and analyzed via flow cytometry. […]
# T1 sequence (P32121 whole entry): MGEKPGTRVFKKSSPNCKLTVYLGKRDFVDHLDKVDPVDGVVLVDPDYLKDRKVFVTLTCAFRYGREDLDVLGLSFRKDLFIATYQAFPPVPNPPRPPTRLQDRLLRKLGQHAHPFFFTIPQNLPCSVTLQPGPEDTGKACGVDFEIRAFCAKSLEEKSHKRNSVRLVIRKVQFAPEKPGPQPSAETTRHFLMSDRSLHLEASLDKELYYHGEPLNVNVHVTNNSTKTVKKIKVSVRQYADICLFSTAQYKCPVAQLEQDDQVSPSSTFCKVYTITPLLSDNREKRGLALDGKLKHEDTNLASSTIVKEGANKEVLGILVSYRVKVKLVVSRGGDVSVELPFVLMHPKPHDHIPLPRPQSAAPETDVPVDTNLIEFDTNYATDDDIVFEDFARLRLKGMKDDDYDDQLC
molecule,measurement,setting,value
"CN(C)c1n/c(=N/Cc2ccco2)ss1 [Compound C30, (Z)-3-((furan-2-ylmethyl)imino)-N,N-dimethyl-3H-1,2,4-dithiazol-5-amine]",S1P1 expression level on T cells,S1P1 on T cells; higher concentrations of compound,higher levels of S1P1 expression
same,ability to inhibit BARR,"S1P1 on T cells; initially screened compound, FIG. 12",inhibit BARR
"COc1cc(Cc2nccc3cc(OC)c(OC)cc23)c(C(C)=O)cc1OC [Compound B29, 1-(2-((6,7-dimethoxyisoquinolin-1-yl)methyl)-4,5-dimethoxyphenyl)ethan-1-one]",inhibition at 50 µM,"[1]; compound 50 μM, isoproterenol 10 nM, read-out: inhibition of β-arrestin 2 activity induced by isoproterenol",> 75%
same,effect on isoproterenol titration curves of β-arrestin 2 recruitment,"[1]; compound at 1, 10, 50 μM, isoproterenol at various concentrations",shifts the potency of agonist rightward and decreases maximal response in a dose dependent fashion
B1,survival,intracranial CT2A glioma,did not to consistently impact survival
same,T-cell lymphopenia (blood T-cell counts),[2],reversed
same,bone marrow T-cell counts,[2],decreased
